Assay results as given in the supplement of paper PMC10307832.

Columns and labels:
Assay in all cases: relative viability (nuclei count vs DMSO), 5 days (fraction); higher = more cells survive
GW-2580 + Luminespib = compound: COC1=CC=C(C=C1)COC2=C(C=C(C=C2)CC3=CN=C(N=C3N)N)OC [GW-2580] + CCNC(=O)c1noc(-c2cc(C(C)C)c(O)cc2O)c1-c1ccc(CN2CCOCC2)cc1 [Luminespib] (partner 0.01 µM)
Procedure, shortened: (§1)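 Lung cancer cell lines were seeded in 1536-well plates and dosed by pin tool the next day, with either a single drug or a fixed anchor-drug dose combined with five library-drug doses (not always all listed) spaced in √10 steps. Five days later, one step fixed the cells and stained their nuclei (final 0.05% Triton X-100, 1% formaldehyde, 1 ug/ml Hoechst), and nuclei were counted on 4× images. Relative viability is the nuclei count in treated wells divided by the count in vehicle wells, and each value is the median of duplicate plates.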

GW-2580 + Foretinib = compound: COC1=CC=C(C=C1)COC2=C(C=C(C=C2)CC3=CN=C(N=C3N)N)OC [GW-2580] + COc1cc2c(Oc3ccc(NC(=O)C4(C(=O)Nc5ccc(F)cc5)CC4)cc3F)ccnc2cc1OCCCN1CCOCC1 [Foretinib] (partner 0.25 µM)
Procedure, shortened: as §1

GW-2580 + Alpelisib = compound: COC1=CC=C(C=C1)COC2=C(C=C(C=C2)CC3=CN=C(N=C3N)N)OC [GW-2580] + Cc1nc(NC(=O)N2CCC[C@H]2C(N)=O)sc1-c1ccnc(C(C)(C)C(F)(F)F)c1 [Alpelisib] (partner 2 µM)
Procedure, shortened: as §1

GW-2580 + Vorinostat = compound: COC1=CC=C(C=C1)COC2=C(C=C(C=C2)CC3=CN=C(N=C3N)N)OC [GW-2580] + O=C(CCCCCCC(=O)Nc1ccccc1)NO [Vorinostat] (partner 1 µM)
Procedure, shortened: as §1

Fedratinib + Crizotinib = compound: Cc1cnc(Nc2ccc(OCCN3CCCC3)cc2)nc1Nc1cccc(S(=O)(=O)NC(C)(C)C)c1 [Fedratinib] + C[C@@H](Oc1cc(-c2cnn(C3CCNCC3)c2)cnc1N)c1c(Cl)ccc(F)c1Cl [Crizotinib] (partner 1 µM)
Procedure, shortened: as §1

Q: UMC-11 was tested. Which relative viability (GW-2580 + Luminespib; first compound 0.08 µM) did it give?
A: Its relative viability is 0.992.

Q: And the relative viability (GW-2580 + Luminespib; first compound 0.8 µM)?
A: The relative viability was 1.1.

Q: What about the relative viability (GW-2580 + Luminespib; first compound 2.53 µM) of the same cell line?
A: Its relative viability is 1.12.

Q: What about the relative viability (GW-2580 + Luminespib; first compound 8 µM) of the same cell line?
A: The relative viability was 1.16.

Q: What about the relative viability (GW-2580 + Foretinib; first compound 0.08 µM) of the same cell line?
A: Its relative viability is 1.06.

Q: And the relative viability (GW-2580 + Foretinib; first compound 0.8 µM)?
A: Its relative viability is 1.04.

Q: And the relative viability (GW-2580 + Foretinib; first compound 2.53 µM)?
A: Its relative viability is 1.1.

Q: And the relative viability (GW-2580 + Foretinib; first compound 8 µM)?
A: The relative viability was 1.23.

Q: What about the relative viability (GW-2580 + Alpelisib; first compound 0.08 µM) of the same cell line?
A: The relative viability was 0.959.

Q: And the relative viability (GW-2580 + Alpelisib; first compound 0.8 µM)?
A: Its relative viability is 1.07.

Q: And the relative viability (GW-2580 + Alpelisib; first compound 2.53 µM)?
A: The relative viability was 1.11.

Q: What about the relative viability (GW-2580 + Alpelisib; first compound 8 µM) of the same cell line?
A: The relative viability was 1.21.

Q: And the relative viability (GW-2580 + Vorinostat; first compound 0.08 µM)?
A: The relative viability was 0.384.

Q: And the relative viability (GW-2580 + Vorinostat; first compound 0.8 µM)?
A: The relative viability was 0.391.

Q: And the relative viability (GW-2580 + Vorinostat; first compound 2.53 µM)?
A: Its relative viability is 0.513.

Q: And the relative viability (GW-2580 + Vorinostat; first compound 8 µM)?
A: The relative viability was 0.413.

Q: And the relative viability (Fedratinib + Crizotinib; first compound 0.1 µM)?
A: The relative viability was 0.573.

Q: And the relative viability (Fedratinib + Crizotinib; first compound 0.3162 µM)?
A: Its relative viability is 0.581.

Q: What about the relative viability (Fedratinib + Crizotinib; first compound 1 µM) of the same cell line?
A: The relative viability was 0.379.
